Test results published in PubChem BioAssay AID330 (DTP/NCI, 2004).
Where “and” joins values, the source holds several entries; their conditions need not be identical. Identical values can stand only once. Inconclusive results and toxic doses are left out.

Tested on: P388 leukemia ip, CD2F1 mice, survival T/C
Assay: NCI In Vivo Anticancer Drug Screen. Data for tumor model P388 Leukemia (intraperitoneal) in CD2F1 (CDF1) mice
Conditions: endpoint: median survival time, higher = longer survival
Method in brief: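 Mice carrying the transplanted tumor received test compound or vehicle. Survival was recorded in each group, and the value is the treated-group measurement divided by that of the vehicle-treated control group.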

[1] = dose: 50.0 mg/kg/injection, schedule: Q01DX005 (ip), vehicle: Klucel (hydroxypropylcellulose) (HPC)
[2] = dose: 100.0 mg/kg/injection, schedule: Q01DX005 (ip), vehicle: Klucel (hydroxypropylcellulose) (HPC)
[3] = dose: 200.0 mg/kg/injection, schedule: Q01DX005 (ip), vehicle: Klucel (hydroxypropylcellulose) (HPC)
[4] = dose: 25.0 mg/kg/injection, schedule: Q01DX005 (ip), vehicle: Klucel (hydroxypropylcellulose) (HPC)
[5] = dose: 100.0 mg/kg/injection, schedule: Q01DX001 (ip), vehicle: Klucel (hydroxypropylcellulose) (HPC)
[6] = dose: 200.0 mg/kg/injection, schedule: Q01DX001 (ip), vehicle: Klucel (hydroxypropylcellulose) (HPC)
[7] = dose: 60.0 mg/kg/injection, schedule: Q01DX005 (ip), vehicle: saline with Tween-80
[8] = dose: 120.0 mg/kg/injection, schedule: Q01DX005 (ip), vehicle: saline with Tween-80
[9] = dose: 240.0 mg/kg/injection, schedule: Q01DX005 (ip), vehicle: saline with Tween-80

Question: Which results are given for CC1SC2(C(=O)N(CN3CCCCC3)c3ccccc32)N(c2ccccc2)C1=O (configuration not stated)?
Answer: T/C [1]: 90 % of control; T/C [2]: 100 % of control; T/C [3]: 94 % of control

Question: Which T/C (dose: 100.0 mg/kg/injection, schedule: Q01DX001 (ip), vehicle: olive oil, sesame oil, peanut oil) does the source give for CCOC(=O)C1CCC=CC1OC(C)=O (configuration not stated) here?
Answer: 112 % of control

Question: And the T/C (dose: 200.0 mg/kg/injection, schedule: Q01DX001 (ip), vehicle: olive oil, sesame oil, peanut oil)?
Answer: 108 % of control

Question: What about the T/C (dose: 400.0 mg/kg/injection, schedule: Q01DX001 (ip), vehicle: olive oil, sesame oil, peanut oil) of the same molecule?
Answer: 107 % of control

Question: With COc1cc2c(c3c1c(=O)c1ccccc1n3C)C=C([N+](=O)[O-])C(C)(C)O2 as the molecule, how does the T/C (dose: 3.0 mg/kg/injection, schedule: Q01DX005 (ip), vehicle: saline + Tween-80 + alcohol) read?
Answer: 116 % of control

Question: And the T/C (dose: 6.0 mg/kg/injection, schedule: Q01DX005 (ip), vehicle: saline + Tween-80 + alcohol)?
Answer: 116 % of control

Question: What about the T/C (dose: 12.0 mg/kg/injection, schedule: Q01DX005 (ip), vehicle: saline + Tween-80 + alcohol) of the same molecule?
Answer: 108 % of control

Question: How did the T/C [4] turn out when O=c1[nH]nc(SCc2c(Cl)cccc2Cl)c(=O)[nH]1 was run?
Answer: 95 % of control

Question: And the T/C [1]?
Answer: 93 % of control

Question: And the T/C [2]?
Answer: 111 % of control

Question: What about the T/C [3] of the same molecule?
Answer: 95 % of control

Question: With O=c1cc(-c2ccc(OCc3ccccc3)cc2)oc2c(-c3c(OCc4ccccc4)cc(OCc4ccccc4)c4c(=O)cc(-c5ccc(OCc6ccccc6)cc5)oc34)c(OCc3ccccc3)cc(OCc3ccccc3)c12 as the molecule, how does the T/C [5] read?
Answer: 95 % of control

Question: What about the T/C [6] of the same molecule?
Answer: 92 % of control

Question: What about the T/C (dose: 400.0 mg/kg/injection, schedule: Q01DX001 (ip), vehicle: Klucel (hydroxypropylcellulose) (HPC)) of the same molecule?
Answer: 103 % of control

Question: For Cc1c2c(C#N)nccc2c(C)c2c1c1ccccc1n2Cc1ccccc1, which T/C (dose: 6.25 mg/kg/injection, schedule: Q04DX003 (ip), vehicle: distilled water + Tween-80) is on record?
Answer: 96 % of control

Question: What about the T/C (dose: 12.5 mg/kg/injection, schedule: Q04DX003 (ip), vehicle: distilled water + Tween-80) of the same molecule?
Answer: 90 % of control

Question: And the T/C (dose: 25.0 mg/kg/injection, schedule: Q04DX003 (ip), vehicle: distilled water + Tween-80)?
Answer: 87 % of control

Question: And the T/C (dose: 50.0 mg/kg/injection, schedule: Q04DX003 (ip), vehicle: distilled water + Tween-80)?
Answer: 87 % of control

Question: And the T/C (dose: 100.0 mg/kg/injection, schedule: Q04DX003 (ip), vehicle: distilled water + Tween-80)?
Answer: 90 % of control

Question: And the T/C (dose: 200.0 mg/kg/injection, schedule: Q04DX003 (ip), vehicle: distilled water + Tween-80)?
Answer: 91 % of control

Question: What does the source list for C=[CH][Sn]([CH]=C)([c]1ccccc1)[c]1ccccc1?
Answer: T/C (dose: 50.0 mg/kg/injection, schedule: Q01DX005 (ip), vehicle: saline): 107 % of control; T/C (dose: 100.0 mg/kg/injection, schedule: Q01DX005 (ip), vehicle: saline): 108 % of control; T/C (dose: 200.0 mg/kg/injection, schedule: Q01DX005 (ip), vehicle: saline): 104 % of control

Question: What does the source list for O=C(Nc1ccc(C(=O)O)cc1)Nc1nccs1?
Answer: T/C (dose: 12.5 mg/kg/injection, schedule: Q01DX009 (ip), vehicle: distilled water + Tween-80): 89 % of control; T/C (dose: 25.0 mg/kg/injection, schedule: Q01DX009 (ip), vehicle: distilled water + Tween-80): 118 % of control; T/C (dose: 50.0 mg/kg/injection, schedule: Q01DX009 (ip), vehicle: distilled water + Tween-80): 122 % of control; T/C (dose: 100.0 mg/kg/injection, schedule: Q01DX009 (ip), vehicle: distilled water + Tween-80): 150 % of control; T/C (dose: 200.0 mg/kg/injection, schedule: Q01DX009 (ip), vehicle: distilled water + Tween-80): 163 % of control

Question: Which T/C (dose: 50.0 mg/kg/injection, schedule: Q01DX009 (ip), vehicle: Klucel (hydroxypropylcellulose) (HPC)) does the source give for CC(=O)Nc1ccc(S(=O)(=O)NCCSSCCNS(=O)(=O)c2ccc(NC(C)=O)cc2)cc1 here?
Answer: 102 % of control

Question: What about the T/C (dose: 100.0 mg/kg/injection, schedule: Q01DX009 (ip), vehicle: Klucel (hydroxypropylcellulose) (HPC)) of the same molecule?
Answer: 94 % of control

Question: And the T/C (dose: 200.0 mg/kg/injection, schedule: Q01DX009 (ip), vehicle: Klucel (hydroxypropylcellulose) (HPC))?
Answer: 91 % of control

Question: With C[CH](C)[Sn](=[O])[CH](C)C as the molecule, how does the T/C (dose: 0.78 mg/kg/injection, schedule: Q01DX009 (ip), vehicle: saline) read?
Answer: 113 % of control

Question: And the T/C (dose: 1.56 mg/kg/injection, schedule: Q01DX009 (ip), vehicle: saline)?
Answer: 106 % of control

Question: And the T/C (dose: 3.12 mg/kg/injection, schedule: Q01DX009 (ip), vehicle: saline)?
Answer: 107 % of control

Question: With CC(=O)CC1CC2(CCC1=O)OCCO2 (configuration not stated) as the molecule, how does the T/C (dose: 100.0 mg/kg/injection, schedule: Q01DX009 (ip), vehicle: saline sonified) read?
Answer: 100 % of control

Question: What about the T/C (dose: 200.0 mg/kg/injection, schedule: Q01DX009 (ip), vehicle: saline sonified) of the same molecule?
Answer: 100 % of control

Question: What about the T/C (dose: 400.0 mg/kg/injection, schedule: Q01DX009 (ip), vehicle: saline sonified) of the same molecule?
Answer: 100 % of control

Question: CCC(=O)[O][Bi]([c]1ccccc1)[c]1ccccc1 was tested. Which T/C [4] did it give?
Answer: 99 % of control and 116 % of control

Question: And the T/C [1]?
Answer: 111 % of control and 114 % of control and 115 % of control

Question: What about the T/C [2] of the same molecule?
Answer: 106 % of control and 124 % of control

Question: What about the T/C [3] of the same molecule?
Answer: 168 % of control

Question: With Nc1[nH]c(=O)ncc1-c1ccccc1Cl as the molecule, how does the T/C [7] read?
Answer: 98 % of control

Question: And the T/C [8]?
Answer: 104 % of control

Question: And the T/C [9]?
Answer: 112 % of control

Question: Which results are given for CCN(CC)C(=O)Cn1cc([N+](=O)[O-])sc1=NC(=O)c1ccco1?
Answer: T/C [5]: 100 % of control; T/C [6]: 101 % of control

Question: Which results are given for COc1ccc(-c2nc(C)cc3cc(OC)c(OC)cc23)cc1OC?
Answer: T/C (dose: 12.5 mg/kg/injection, schedule: Q01DX009 (ip), vehicle: water): 98 % of control; T/C (dose: 25.0 mg/kg/injection, schedule: Q01DX009 (ip), vehicle: water): 100 % of control; T/C (dose: 50.0 mg/kg/injection, schedule: Q01DX009 (ip), vehicle: water): 100 % of control; T/C (dose: 100.0 mg/kg/injection, schedule: Q01DX009 (ip), vehicle: water): 100 % of control

Question: Which results are given for O=C1CS(=O)(=O)C(c2cccc(Cl)c2)N1N1C(=O)CS(=O)(=O)C1c1cccc(Cl)c1 (configuration not stated)?
Answer: T/C (dose: 50.0 mg/kg/injection, schedule: Q01DX005 (ip), vehicle: saline with Tween-80): 92 % of control; T/C (dose: 100.0 mg/kg/injection, schedule: Q01DX005 (ip), vehicle: saline with Tween-80): 100 % of control; T/C (dose: 200.0 mg/kg/injection, schedule: Q01DX005 (ip), vehicle: saline with Tween-80): 92 % of control

Question: Which results are given for C1=NCCCN2CCCCC12 (configuration not stated)?
Answer: T/C (dose: 20.0 mg/kg/injection, schedule: Q01DX009 (ip), vehicle: saline): 98 % of control; T/C (dose: 40.0 mg/kg/injection, schedule: Q01DX009 (ip), vehicle: saline): 93 % of control

Question: What does the source list for CCC1=NOC(n2c3ccccc3c3ccccc32)C1 (configuration not stated)?
Answer: T/C [1]: 100 % of control; T/C [2]: 100 % of control; T/C [3]: 95 % of control

Question: What does the source list for Cc1cc(C(=O)NN)c(C#N)c(=O)[nH]1?
Answer: T/C (dose: 100.0 mg/kg/injection, schedule: Q01DX009 (ip), vehicle: saline): 100 % of control; T/C (dose: 200.0 mg/kg/injection, schedule: Q01DX009 (ip), vehicle: saline): 109 % of control; T/C (dose: 400.0 mg/kg/injection, schedule: Q01DX009 (ip), vehicle: saline): 90 % of control

Question: C=CCn1c(NCCN(CC)CC)nc2ccc(Cl)cc2c1=O was tested. Which T/C (dose: 12.5 mg/kg/injection, schedule: Q01DX009 (ip), vehicle: saline sonified) did it give?
Answer: 100 % of control

Question: What about the T/C (dose: 25.0 mg/kg/injection, schedule: Q01DX009 (ip), vehicle: saline sonified) of the same molecule?
Answer: 104 % of control

Question: And the T/C (dose: 50.0 mg/kg/injection, schedule: Q01DX009 (ip), vehicle: saline sonified)?
Answer: 104 % of control

Question: What does the source list for O=C(Cc1ccccc1)c1ccccc1?
Answer: T/C (dose: 100.0 mg/kg/injection, schedule: Q04DX003 (ip), vehicle: saline with Tween-80): 98 % of control; T/C (dose: 200.0 mg/kg/injection, schedule: Q04DX003 (ip), vehicle: saline with Tween-80): 100 % of control; T/C (dose: 400.0 mg/kg/injection, schedule: Q04DX003 (ip), vehicle: saline with Tween-80): 100 % of control

Question: Which results are given for Cc1cccc(NC(=O)C(=O)C(C#N)c2c(Cl)cccc2Cl)c1C (configuration not stated)?
Answer: T/C [7]: 102 % of control; T/C [8]: 96 % of control; T/C [9]: 100 % of control

Question: CC(/C=C/C1OC(=O)C=CC1C)=C\C(C)C/C=C/C(C)=C/C(CO)C(=O)C(C)C(O)C(C)C/C(C)=C/C(=O)O (configuration not stated) was tested. Which T/C (dose: 25.0 micrograms/kg/injection, schedule: Q01DX005 (ip), vehicle: other) did it give?
Answer: 119 % of control

Question: And the T/C (dose: 100.0 micrograms/kg/injection, schedule: Q01DX005 (ip), vehicle: other)?
Answer: 153 % of control

Question: How did the T/C (dose: 7.5 mg/kg/injection, schedule: Q01DX005 (ip), vehicle: Klucel (hydroxypropylcellulose) (HPC)) turn out when CC(=O)c1cc[c]([Sn]([CH3])([Cl])[c]2ccccc2)cc1 (configuration not stated) was run?
Answer: 100 % of control

Question: What about the T/C (dose: 15.0 mg/kg/injection, schedule: Q01DX005 (ip), vehicle: Klucel (hydroxypropylcellulose) (HPC)) of the same molecule?
Answer: 107 % of control

Question: What about the T/C (dose: 60.0 mg/kg/injection, schedule: Q01DX005 (ip), vehicle: Klucel (hydroxypropylcellulose) (HPC)) of the same molecule?
Answer: 108 % of control
